Experimental data: paper PMC9570478, “Purification, Biochemical and Kinetic Characterization of a Novel Alkaline sn-1,3-Regioselective Triacylglycerol Lipase from Penicillium crustosum Thom Strain P22 Isolated from Moroccan Olive Mill Wastewater” (International Journal of Molecular Sciences, 2022)

Assays:
Lipolase = target: T1, Lipolase (Thermomyces lanuginosus, UniProt O59952); assay: pH-Stat titration; assay type: biochemical; conditions: commercial preparation; TC8 emulsion
T1 construct: gene LIP; commercial enzyme preparation (Novozymes)
T1 sequence (O59952 23-291): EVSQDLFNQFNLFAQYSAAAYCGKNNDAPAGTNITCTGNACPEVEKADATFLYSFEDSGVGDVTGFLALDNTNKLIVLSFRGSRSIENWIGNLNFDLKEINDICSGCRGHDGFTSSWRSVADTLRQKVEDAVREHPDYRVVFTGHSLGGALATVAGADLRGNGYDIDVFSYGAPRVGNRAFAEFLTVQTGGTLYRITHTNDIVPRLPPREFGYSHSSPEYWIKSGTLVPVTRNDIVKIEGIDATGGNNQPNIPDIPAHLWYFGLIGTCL

Palatase 20000 L = target: T2, Palatase 20000 L (Rhizomucor miehei, UniProt P19515); assay: pH-Stat titration; assay type: biochemical; conditions: commercial preparation; TC8 emulsion
T2 construct: commercial enzyme preparation (Novozymes)
T2 sequence (P19515 95-363): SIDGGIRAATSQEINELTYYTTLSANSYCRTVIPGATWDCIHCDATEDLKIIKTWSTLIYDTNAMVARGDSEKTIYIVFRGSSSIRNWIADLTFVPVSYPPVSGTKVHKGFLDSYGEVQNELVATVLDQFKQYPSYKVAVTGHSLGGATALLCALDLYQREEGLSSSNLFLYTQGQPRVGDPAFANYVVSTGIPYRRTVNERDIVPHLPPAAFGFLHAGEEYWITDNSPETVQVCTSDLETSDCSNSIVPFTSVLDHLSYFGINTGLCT

CCCCCCCC(=O)OCC(COC(=O)CCCCCCC)OC(=O)CCCCCCC [TC8]
pH-Stat titration (Lipolase): almost the same substrate specificity profile as PCrL under the same experimental conditions | pH-Stat titration (Palatase 20000 L): almost the same substrate specificity profile as PCrL under the same experimental conditions
